In US20100210700A1, “METHODS OF TREATMENT USING INTRAVENOUS FORMULATIONS COMPRISING TEMOZOLOMIDE” (SCHERING CORPORATION, priority 2007, published 2010):
Where two headings read alike, the source gives them in different places.

Columns and labels:
[1] = Clinical bioequivalence study, IV (1.5-hr infusion) vs oral TMZ, primary CNS malignancies; format: in vivo, human; conditions: for Tmax / half-life / AUC / Cmax / concentration at 0 hr / concentration at 0.25 hr / concentration at 0.5 hr / concentration at 1 hr / concentration at 1.25 hr / concentration at 1.5 hr / concentration at 1.75 hr / concentration at 2 hr / concentration at 2.5 hr / concentration at 3 hr / concentration at 4 hr / concentration at 6 hr / concentration at 8 hr: human, plasma; for Tmax: read-out: Tmax, Median (range); for half-life: read-out: t½ terminal-phase half-life, Mean (CV, %) (converted); for concentration at 0 hr / concentration at 0.25 hr / concentration at 0.5 hr / concentration at 1 hr / concentration at 1.25 hr / concentration at 1.5 hr / concentration at 1.75 hr / concentration at 2 hr / concentration at 2.5 hr / concentration at 3 hr / concentration at 4 hr / concentration at 6 hr / concentration at 8 hr: read-out: Mean Temozolomide Concentration
Method: Twenty-two patients with primary CNS malignancies were enrolled in a clinical bioequivalence study and treated according to the methods of the present invention. Nineteen of the patients were considered to be pharmacokinetic evaluable. This study was a randomized, open-label, 2-way cross over study of the PK of oral and IV TMZ. The IV formulation of Example 3 is administered at a dosage of 150-200 mg/m^2 by intravenous infusion over a period of about 1.5 hours.
The patients are divided into two groups, those receiving Treatment A and those receiving Treatment B. The Treatment A patients receive oral TMZ (200 mg/m^2) on Days 1, 2 and 5, IV TMZ 150 mg/m2 on Day 3, and oral TMZ (150 mg/m^2) on Day 4 of a 28 day cycle. The Treatment B patients receive oral TMZ (200 mg/m^2) on Days 1, 2 and 5, Oral TMZ (150 mg/m^2) on Day 3 and IV TMZ (150 mg/m^2) on Day 4 of a 28 day cycle. Cmax and AUC for TMZ and MTIC are determined according to methods known to those skilled in the art on Days 3 and 4.

[2] = PO TMZ, Dose = 150 mg/m^2, Actual n = 12; cited from earlier work
[3] = Two-way crossover pilot bioavailability study, IV (1-hour infusion) vs PO temozolomide; format: in vivo, human; conditions: for bioavailability / AUC / Cmax: human, plasma; for bioavailability: po, 150 mg/m^2/day, humans, n=13 patients; for AUC / Cmax: n = 13
Method: To validate the IV PK model, the first pass effects and oral bioavailability were determined in a two-way crossover pilot bioavailability study. This was a Phase-1, randomized, open-label pilot study designed to compare the relative bioavailability of IV and PO temozolomide in adult patients with histologically confirmed primary CNS malignancies. The study was conducted in conformance with Good Clinical Practices. Up to 18 patients (to yield 12 evaluable patients) were planned to be enrolled at 1 or 2 centers. 13 patients were enrolled at 2 centers (7 at Center 1, 6 at Center 2). All 13 patients were included in pharmacokinetic and safety analyses. Patients were followed for 23 days after treatment ended for safety evaluations.
After fulfilling all study eligibility requirements, the patients received temozolomide for 5 days (Days 1 to 5) during a 4-week treatment cycle. On Days 1, 2, and 5, patients received temozolomide (200 mg/m^2/day) as a PO dose. On Days 3 and 4, patients received Temozolomide (150 mg/m^2/day) as a PO dose on one day and as an IV dose on the other day. The IV dose was administered by 1-hour infusion (using an infusion pump) either on Day 3 or Day 4 according to a random code. Pharmacokinetic evaluations were performed on Days 3 and 4 for determination of concentrations of temozolomide and MTIC in plasma.

[4] = 1.5-hr infusion vs PO, 150 mg/m^2/day, n = 19
[5] = TMZ IV 1.5 hr infusion, 150 mg/m^2/day, n = 19
[6] = 150 mg/m2, TMZ PO, 150 mg/m^2/day, n = 19
[7] = IV 1.5 hr infusion, 150 mg/m^2/day, n = 19
[8] = IV 1.5 hr infusion, 150 mg/m^2/day, n = 18
[9] = 1-hour infusion vs PO, 150 mg/m2/day

For `Cn1nnc2c(C(N)=O)ncn2c1=O` [TMZ, 3,4-dihydro-3-methyl-4-oxoimidazo[5,1-d]-as-tetrazine-8-carboxamide], the “AUC(I) Ratio Estimate IV to PO” value [1, 4] was 105%, the “AUC(I) ratio IV to PO, 90% Confidence Interval” value [1, 4] was 102-108% and the “AUC(tf) Ratio Estimate IV to PO” value [1, 4] was 106%. For the same compound, the “AUC(tf) ratio IV to PO, 90% Confidence Interval” value [1, 4] was 103-109%, the “Cmax Ratio Estimate IV to PO” value [1, 4] was 97% and the “Cmax ratio IV to PO, 90% Confidence Interval” value [1, 4] was 91-102%. The “bioequivalence of IV (1.5-hr infusion) and oral formulations” value ([1]; Cmax, AUC(tf), AUC(I) of temozolomide and MTIC, n=19) was “bioequivalent”, the “tf time of final quantifiable sample, Mean (CV, %)” value [1, 5] was 8.00 (0) hr and the “tf time of final quantifiable sample, Mean (CV, %)” value ([1]; TMZ PO, 150 mg/m^2/day, n = 19) was 8.00 (0) hr. For the same compound, the Tmax [1, 6] was 1 h, the half-life [1, 6] was 1.91 h and the AUC ([1]; iv, 150 mg/m2, IV infusion about 1 hour to about 2 hours, single dose of 150 mg/m2, read-out: arithmetic AUC (from time zero to infinity) for temozolomide, range) was 17600 to 37000 ng·h/mL. It also gave a Cmax ([1]; iv, 150 mg/m2, IV infusion about 1 hour to about 2 hours, single dose of 150 mg/m2, read-out: arithmetic maximum plasma concentration (Cmax) of temozolomide, range) of 5500 to 10600 ng/mL, an AUC ([1]; iv, 150 mg/m2, IV infusion about 1 hour to about 2 hours, single dose of 150 mg/m2, read-out: arithmetic mean AUC (from time zero to infinity) for temozolomide) of about 25000 ng·h/mL and a Cmax ([1]; iv, 150 mg/m2, IV infusion about 1 hour to about 2 hours, single dose of 150 mg/m2, read-out: arithmetic mean maximum plasma concentration (Cmax) of temozolomide) of about 7400 ng/mL. The AUC ([1]; iv, 150 mg/m2, arithmetic mean AUC (from time zero to infinity) for temozolomide, IV infusion about 1 hour to about 2 hours, single dose of 150 mg/m2, heading: arithmetic mean AUC for temozolomide) was about 25000 ng·h/mL, the AUC ([1]; iv, 150 mg/m^2/day, TMZ IV 1.5 hr infusion, 150 mg/m^2/day, n = 19, read-out: AUC(I) of TMZ, Mean) was 25000 ng·h/mL and the AUC ([1]; iv, 150 mg/m^2/day, TMZ IV 1.5 hr infusion, 150 mg/m^2/day, n = 19, read-out: AUC(tf) of TMZ, Mean) was 23400 ng·h/mL. The Cmax ([1]; iv, 150 mg/m^2/day, TMZ IV 1.5 hr infusion, 150 mg/m^2/day, n = 19, read-out: Cmax of TMZ, arithmetic Mean) was 7440 ng/mL, the AUC ([1]; iv, 150 mg/m^2/day, TMZ IV 1.5 hr infusion, 150 mg/m^2/day, n = 19 PE, read-out: AUC(I) of TMZ, IV Mean (least-squares)) was 24600 ng·h/mL and the AUC ([1]; iv, 150 mg/m^2/day, TMZ IV 1.5 hr infusion, 150 mg/m^2/day, n = 19 PE, read-out: AUC(tf) of TMZ, IV Mean (least-squares)) was 23100 ng·h/mL. For the same compound, the Cmax ([1]; iv, 150 mg/m^2/day, TMZ IV 1.5 hr infusion, 150 mg/m^2/day, n = 19 PE, read-out: Cmax of TMZ, IV Mean (least-squares)) was 7290 ng/mL, the AUC ([1]; po, 150 mg/m2, TMZ PO, 150 mg/m^2/day, n = 19, read-out: AUC(I) of TMZ, Mean) was 23600 ng·h/mL and the AUC ([1]; po, 150 mg/m2, TMZ PO, 150 mg/m^2/day, n = 19, read-out: AUC(tf) of TMZ, Mean) was 22000 ng·h/mL. For the same compound, the Cmax ([1]; po, 150 mg/m2, TMZ PO, 150 mg/m^2/day, n = 19, read-out: Cmax of TMZ, arithmetic Mean) was 7680 ng/mL, the AUC ([1]; po, 150 mg/m2, TMZ PO, 150 mg/m^2/day, n = 19 PE, read-out: AUC(I) of TMZ, PO Mean (least-squares)) was 23400 ng·h/mL and the AUC ([1]; po, 150 mg/m2, TMZ PO, 150 mg/m^2/day, n = 19 PE, read-out: AUC(tf) of TMZ, PO Mean (least-squares)) was 21800 ng·h/mL. The Cmax ([1]; po, 150 mg/m2, TMZ PO, 150 mg/m^2/day, n = 19 PE, read-out: Cmax of TMZ, PO Mean (least-squares)) was 7540 ng/mL, the concentration at 0 hr [1, 7] was 0 ng/mL and the concentration at 0.25 hr [1, 8] was 2380 ng/mL. For the same compound, the concentration at 0.5 hr [1, 7] was 3670 ng/mL, the concentration at 1 hr [1, 7] was 5490 ng/mL and the concentration at 1.25 hr [1, 8] was 6590 ng/mL. The concentration at 1.5 hr [1, 7] was 7080 ng/mL, the concentration at 1.75 hr [1, 7] was 6100 ng/mL and the concentration at 2 hr [1, 7] was 5600 ng/mL. It also gave a concentration at 2.5 hr [1, 7] of 4590 ng/mL, a concentration at 3 hr [1, 8] of 3860 ng/mL and a concentration at 4 hr [1, 7] of 2810 ng/mL. The concentration at 6 hr [1, 7] was 1200 ng/mL, the concentration at 8 hr [1, 7] was 590 ng/mL and the concentration at 0 hr ([1]; PO, 150 mg/m^2/day, n = 19) was 0 ng/mL. It also gave a concentration at 0.25 hr ([1]; PO, 150 mg/m^2/day, n = 19) of 2110 ng/mL, a concentration at 0.5 hr ([1]; PO, 150 mg/m^2/day, n = 19) of 5320 ng/mL and a concentration at 1 hr ([1]; PO, 150 mg/m^2/day, n = 19) of 6050 ng/mL. It also gave a concentration at 1.25 hr ([1]; PO, 150 mg/m^2/day, n = 18) of 6120 ng/mL, a concentration at 1.5 hr ([1]; PO, 150 mg/m^2/day, n = 19) of 5770 ng/mL and a concentration at 1.75 hr ([1]; PO, 150 mg/m^2/day, n = 18) of 5360 ng/mL. The concentration at 2 hr ([1]; PO, 150 mg/m^2/day, n = 19) was 4890 ng/mL, the concentration at 2.5 hr ([1]; PO, 150 mg/m^2/day, n = 19) was 4000 ng/mL and the concentration at 3 hr ([1]; PO, 150 mg/m^2/day, n = 19) was 3440 ng/mL. The concentration at 4 hr ([1]; PO, 150 mg/m^2/day, n = 19) was 2410 ng/mL, the concentration at 6 hr ([1]; PO, 150 mg/m^2/day, n = 19) was 1170 ng/mL and the concentration at 8 hr ([1]; PO, 150 mg/m^2/day, n = 19) was 560 ng/mL. For the same compound, the Tmax [1, 5] was 1.5 h, the half-life [1, 5] was 1.82 h and the Maximum AUC [2] was 35400 ng·h/mL. For the same compound, the Maximum Cmax [2] was 16800 ng/mL, the Mean AUC [2] was 24800 ng·h/mL and the Mean Cmax [2] was 8800 ng/mL. The Minimum AUC [2] was 17700 ng·h/mL, the Minimum Cmax [2] was 2600 ng/mL and the “AUC Ratio Estimate IV/PO” value [3, 9] was 104%. The “AUC ratio IV/PO, 90% C.I.” value [3, 9] was 97-112%, the “Cmax Ratio Estimate IV/PO” value [3, 9] was 114% and the “Cmax ratio IV/PO, 90% C.I.” value [3, 9] was 100-131%. For the same compound, the bioavailability ([3]; read-out: oral bioavailability) was 96%, the bioavailability ([3]; read-out: oral bioavailability, range) was 89 to 100% and the AUC ([3]; TMZ IV 1-hour infusion, 150 mg/m2/day, read-out: AUC of TMZ, IV Mean (least-squares)) was 21500 ng·h/mL. For the same compound, the Cmax ([3]; TMZ IV 1-hour infusion, 150 mg/m2/day, read-out: Cmax of TMZ, IV Mean (least-squares)) was 7100 ng/mL, the AUC ([3]; TMZ PO, 150 mg/m2/day, read-out: AUC of TMZ, PO Mean (least-squares)) was 20700 ng·h/mL and the Cmax ([3]; TMZ PO, 150 mg/m2/day, read-out: Cmax of TMZ, PO Mean (least-squares)) was 6200 ng/mL.
